# Test results as given in PubChem BioAssay AID1996.
# Details: buffer; pH 7.4; 200.0 µM
row,Compound,solubility kinetic
1,O=C(Nc1ccccc1N1CCOCC1)c1ccco1,35 µg/mL
2,Cc1cc(C)cc(NC(=S)N(C)C)c1,30.7 µg/mL
3,COc1ccc(CC(C)Nc2cccc(F)c2)cc1 (centres undefined),1 µg/mL
4,Cc1cc(C)c(S(=O)(=O)N2CCCC2)c(C)c1,30.4 µg/mL
5,CCc1ccccc1NC(=O)CN(C)Cc1c(O)ccc2ccccc12,22.8 µg/mL
6,COc1cccc(NC(=S)Nc2ccc(Br)cc2Cl)c1,4.6 µg/mL
7,CNC(=O)Cn1nc(C)c(S(=O)(=O)N2CCOCC2)c1C,> 47.5 µg/mL
8,COc1cccc(/C=C/C(=O)N2CC(C)OC(C)C2)c1OC (centres undefined),> 45.8 µg/mL
9,Cc1nc2ccc(NC(=O)C3COc4ccccc4O3)cc2s1 (centres undefined),30.9 µg/mL
10,Cc1ccc(NC2=NC(c3ccc(F)cc3)n3c(nc(C)cc3=O)N2)cc1 (centres undefined),5 µg/mL
11,CN(C)c1c(F)cc(C(=O)NCc2ccccc2)cc1F,36 µg/mL
12,O=c1c2ccccc2nc(/C=C/c2ccccc2O)n1-c1ccccc1O,30.8 µg/mL
13,COc1cc(C)c(CN2CC=C(c3ccc(F)cc3)CC2)cc1C,8.5 µg/mL
14,O=C(NCC1CCCO1)c1cc(C(=O)C2CCCCC2)c[nH]1 (centres undefined),> 45.7 µg/mL
15,CC1=CC(C)(C)NC(=S)N1c1ccc(C)c(C)c1,2.1 µg/mL
16,COc1ccccc1C(=O)NCCC(=O)NCc1ccncc1,> 47 µg/mL
17,O=C(NN1CCOCC1)c1ccc(F)cc1,> 33.6 µg/mL
18,Cc1cc(F)ccc1NC(=S)NCCc1ccccc1,22.5 µg/mL
19,O=C(CSc1cccc[n+]1[O-])c1ccc(Cl)cc1,39.9 µg/mL
20,CC(Sc1cccc[n+]1[O-])C(=O)NC1CCCCC1C (centres undefined),> 44.2 µg/mL
21,CC(=O)OCC(=O)Nc1ccccc1OC(F)F,> 38.9 µg/mL
22,O=S(=O)(NC1CN2CCC1CC2)c1ccc(Cl)cc1 (centres undefined),42.6 µg/mL
23,Cc1ccc(Cn2c(N)nc3ccccc32)cc1,23.8 µg/mL
24,O=C(CS(=O)(=O)c1ccccc1)Nc1ncc([N+](=O)[O-])s1,> 49.1 µg/mL
25,COc1ccccc1OCC(=O)NC1CC(C)(C)NC(C)(C)C1,41.7 µg/mL

row,Compound,solubility kinetic
1,COc1ccc(-c2csc(Nc3ncccn3)n2)cc1C,< 0.1 µg/mL
2,CCC1Sc2ccccc2N(CC(=O)NC2CC2)C1=O (centres undefined),39.6 µg/mL
3,CN(C)c1ccc(NC(=O)Cc2ccccc2)c2ccccc12,5.3 µg/mL
4,Cc1cc(NC(=O)CSc2nnc(-c3ccco3)n2C)no1,> 47.9 µg/mL
5,O=C(Cc1ccccc1)N1CCC2(CC1)NCCc1[nH]cnc12,43.1 µg/mL
6,Cc1cccc(NC(=O)CN(C)C(=O)C2CC2)c1C,> 39.1 µg/mL
7,CC(C)(C)c1ccc(C(=O)Nc2ccc(Oc3cccnc3)nc2)cc1,14.1 µg/mL
8,O=C(CCCn1cc([N+](=O)[O-])cn1)NCc1ccccc1,> 43.2 µg/mL
9,Cc1cccc(OP(N)(=O)Oc2cccc(C)c2C)c1C,3.9 µg/mL
10,O=C(O)CC1(CC(=O)NCc2cccc(Cl)c2)CCCCC1,> 48.6 µg/mL
11,CCCCN(CC)C(=O)c1ccc(Cl)cc1,29.5 µg/mL
12,O=C(COC(=O)CNC(=O)c1ccccc1F)NCC(F)(F)F,> 50.4 µg/mL
13,CC(C(=O)NC1CCCCCC1)n1cc([N+](=O)[O-])cn1 (centres undefined),> 42 µg/mL
14,Cc1cccc(C(=O)NCCC(=O)Nc2ccc(C#N)cc2)c1,1.3 µg/mL
15,Cc1ccccc1/C=C\c1nc(O)c([N+](=O)[O-])c(=O)[nH]1,> 41 µg/mL
16,CC1CCN(C(=O)c2cc3ccccc3cc2O)CC1,> 40.4 µg/mL
17,O=C(COC(=O)COc1cccc(F)c1)Nc1nc2ccccc2s1,45.1 µg/mL
18,COc1cccc(NC2=NCCCS2)c1,> 33.3 µg/mL
19,COCCNC(=S)NCc1cccs1,31.9 µg/mL
20,CC(=O)c1ccc(OCC(=O)NCc2ccc(F)cc2)cc1,> 45.2 µg/mL
21,CSCCC(NC(=O)c1ccco1)C(=O)NC1CCC(C)CC1 (centres undefined),> 50.8 µg/mL
22,Cc1c(C=O)c2cc(OCc3ccccc3)ccc2n1C,< 0.6 µg/mL
23,CC(C)(C)c1ccc(C(=O)OCC(=O)NCc2ccco2)cc1,39 µg/mL
24,COc1cccc(SCC2CSc3nc4ccccc4c(=O)n32)c1 (centres undefined),> 53.5 µg/mL
25,Cl.Clc1ccc(Cn2c(CN3CCCC3)nc3ccccc32)cc1,49.5 µg/mL

row,Compound,solubility kinetic
1,O=C1CC(Cc2ccccc2)C(=O)N1c1ncccn1 (centres undefined),> 40.1 µg/mL
2,Cc1cc(NC(=O)c2ccc([N+](=O)[O-])cc2)n(C)n1,> 39 µg/mL
3,Cn1cccc1/C=N\NC(=O)C1COc2ccccc2O1 (centres undefined),> 42.8 µg/mL
4,COC(=O)C(C)(N)Cc1ccc(O)cc1.Cl (centres undefined),> 36.9 µg/mL
5,Cc1[nH]c2ccccc2c1C(=O)C(=O)N(C)C1CCCCC1,> 44.8 µg/mL
6,CC1CCCC(NC(=O)COC(=O)COc2ccccc2Cl)C1C (centres undefined),31.1 µg/mL
7,CCCCNC(=O)COC(=O)c1ccc(F)cc1Cl,> 43.2 µg/mL
8,Cn1cnnc1SCC(=O)NC1CCCc2ccccc21 (centres undefined),> 45.4 µg/mL
9,CC1CC(C)CN(C(=O)COC(=O)COc2ccccc2C#N)C1 (centres undefined),> 49.6 µg/mL
10,FC(F)(F)c1ccccc1CCN1CCNCC1,32.9 µg/mL
11,O=C(COC(=O)CCC1CCCC1)NCc1ccc(Cl)cc1,< 0.7 µg/mL
12,O=C(CCCC(=O)c1ccccc1)Nc1ccc(O)cc1,> 42.5 µg/mL
13,COc1ccccc1C(=O)Nc1c(-c2ccccc2)nc2ccccn12,10 µg/mL
14,CC(C)(C)c1ccc(NC(=O)NC2CCCc3ccccc32)cc1 (centres undefined),< 0.3 µg/mL
15,CCN(C(=O)COc1ncnc2sccc12)c1ccccc1,42.5 µg/mL
16,COc1ccccc1C(C)NC(=O)CCOc1cccc(C)c1 (centres undefined),2.4 µg/mL
17,Cc1ccc(-c2csc(NC(=O)c3c(C)noc3C)n2)s1,15.8 µg/mL
18,CN(C)c1nc(N)c([N+](=O)[O-])c(N2CCCCCC2)n1,39.7 µg/mL
19,COc1cccc(Nc2nc(N)c([N+](=O)[O-])c(NCc3ccco3)n2)c1,1.2 µg/mL
20,CN(C)CCCNC(=O)c1cc(C(=O)c2ccccc2)c[nH]1,> 44.9 µg/mL
21,CC(NC(=O)c1cnccn1)c1ccc(S(N)(=O)=O)cc1 (centres undefined),> 46 µg/mL
22,O=C(Nc1nccs1)c1cn2ccccc2n1,36.2 µg/mL
23,N#C/C(=C\c1cc([N+](=O)[O-])ccc1Cl)C(N)=O,33.5 µg/mL
24,CCN(CC)C(=N)N1c2ccccc2CCC1C.Cl (centres undefined),40.8 µg/mL
25,COc1ccc(Br)c(C(=O)NC(C)(C)CO)c1,> 45.3 µg/mL

row,Compound,solubility kinetic
1,O=c1c2ccccc2ncn1-c1ccc([N+](=O)[O-])cc1Cl,17 µg/mL
2,Cc1ccc(C(=O)NCCNC(=O)c2cccnc2)cc1,40 µg/mL
3,Nc1ccc(S(=O)(=O)N2CCc3ccccc32)cc1,> 41.2 µg/mL
4,COc1ccccc1CCC(=O)OCC(=O)Nc1ccc2[nH]c(=O)[nH]c2c1,30.5 µg/mL
5,Cc1ccc(Nc2nc(-c3ccc(F)cc3)cs2)nc1,< 0.2 µg/mL
6,O=C1C(Cl)=C(NCCN2CCOCC2)C(=O)c2ccccc21,> 48.1 µg/mL
7,CC1(C)Cc2c(sc(NC(=O)Cc3ccccc3)c2C#N)CO1,0.4 µg/mL
8,CCOc1ccc(Nc2nc(N)c([N+](=O)[O-])c(N3CCN(C)CC3)n2)cc1,51.9 µg/mL
9,CN(CC(=O)Nc1ccc(F)cc1)C(=O)C1CCCC1,> 41.7 µg/mL
10,Cc1cccc(NC(=O)c2cc(=O)c3ccccc3o2)c1,1.9 µg/mL
11,Brc1ccc2[nH]c3c(c2c1)CCC3,3.1 µg/mL
12,O=[N+]([O-])c1cccnc1Oc1ccc(F)cc1,31.6 µg/mL
13,COC(=O)CCC(=O)Nc1cccc([N+](=O)[O-])c1,> 37.8 µg/mL
14,CCc1ccc(NS(=O)(=O)c2ccc3oc(=O)ccc3c2)cc1,41.2 µg/mL
15,CC1NC(=S)N(C2CCCCC2)C1=O (centres undefined),> 31.8 µg/mL
16,CC(=O)c1c(O)c2ccccc2n(C2CCCCC2)c1=O,1.4 µg/mL
17,O=C(NCC1CCCO1)c1cc2c(s1)CCCC2 (centres undefined),> 39.8 µg/mL
18,C[C@@H]1NC(=O)N[C@@H]1CCCCCC(=O)O,> 32.1 µg/mL
19,O=c1c(-c2ccccc2)c(O)c2ccccc2n1-c1ccccc1,> 47 µg/mL
20,O=c1c2ccccc2nc(Cc2ccccc2)n1-c1cccc(O)c1,6 µg/mL
21,O=C(Nc1ccccc1)c1cn2ccccc2n1,14.7 µg/mL
22,Cc1ccc(C(=O)OCc2cc(=O)n3ccsc3n2)s1,6.8 µg/mL
23,CCOC(=O)Nc1cccnc1Sc1ccc(Cl)cc1,35.1 µg/mL
24,COC(=O)N1c2ccccc2CCc2ccccc21,36.6 µg/mL
25,CCOC(=O)NC(=O)c1cn(-c2ccc(OC)cc2)c(=O)[nH]c1=O,9.1 µg/mL

row,Compound,solubility kinetic
1,C=CCn1cccc(C(=O)Nc2ccc(C)cc2)c1=O,39.7 µg/mL
2,Cc1cccc2nc3c(nc12)CCCC3,6.4 µg/mL
3,O=S(=O)(c1cc(Cl)ccc1Cl)N1CCN2CCCC2C1 (centres undefined),47.5 µg/mL
4,O=C(NCc1ccccc1)c1nc[nH]c1C(=O)NCc1ccccc1,1.1 µg/mL
5,COC(=O)CNC(=O)c1cccc(Cl)c1,> 34.1 µg/mL
6,O=C(O)/C=C\C(=O)Nc1ccc(F)c(F)c1F,34.3 µg/mL
7,CC(NCc1ccc(F)cc1)C(=O)NC1CCCCC1.O=C(O)C(=O)O (centres undefined),> 55.3 µg/mL
8,CC(=O)C(/C=N/c1ncc(C(F)(F)F)cc1Cl)=C(\C)O,1.3 µg/mL
9,COc1ccccc1OCc1nc(C#N)c(N2CCCC2)o1,39.1 µg/mL
10,C=CCN(CC=C)C(=S)Nc1ccc(OC)c(OC)c1,> 43.9 µg/mL
11,CCC(C)(NC=O)C(=O)Nc1c(C)cccc1C (centres undefined),> 37.2 µg/mL
12,COC(=O)c1ccccc1NCC(=O)c1ccc(OC)cc1,11.2 µg/mL
13,CC(=O)Nc1cccc(-c2csc(Nc3ccc(Cl)cn3)n2)c1,0.5 µg/mL
14,CCSc1nc2cc(S(=O)(=O)N3CCOCC3)ccc2o1,> 49.3 µg/mL
15,CNC(=O)NC(=O)COc1ccc2oc3c(c2c1)CCCC3,2 µg/mL
16,COCCn1c(=S)[nH]c2ccccc21,> 31.2 µg/mL
17,N#Cc1cc2cc3ccccc3nc2n2c(=O)c3ccccc3nc12,< 0.2 µg/mL
18,CCC1C(=O)Nc2ccccc2N1C(=O)COc1ccccc1 (centres undefined),> 46.6 µg/mL
19,Brc1ccccc1Cn1cnc2ccccc21,27.8 µg/mL
20,Cc1ccccc1-c1noc(CCC(=O)NCc2ccco2)n1,42.1 µg/mL
21,Cc1ccccc1NC(=O)NCCCN1CCN(C)CC1,> 43.6 µg/mL
22,Cc1ccc(Cl)c(OCC(=O)N2CCc3ccccc3C2)c1,6.2 µg/mL
23,COc1ccccc1OCC(=O)Nc1ccc(NC(=O)COc2ccccc2OC)cc1,1.4 µg/mL
24,Cc1ccc(Cn2c(C)nc3ccc([N+](=O)[O-])cc3c2=O)cc1,1.5 µg/mL
